What was measured:
[1] = tested on: skeletonema costatum; assay: Toxicity to algae, ISO 10253 (OSPAR HOCNF); format: in vivo; conditions: amount required to kill or incapacitate half the test population per amount of water
Source text: (§1) According to still other embodiments described herein, a disulfonate salt of 2,4-pentanedione is provided. According to one such embodiment, the salt comprises 2,4-pentanedione-1,5-sodium disulfonate. According to another such embodiment, a disulfonate salt of 2,4-pentanedione has an environmentally acceptable toxicity. As used herein, the term “environmentally acceptable toxicity” means that, when tested according to procedures that are the same as or equivalent to those set forth by the OSPAR Guidelines for Completing the Harmonised Offshore Chemical Notification Format (HOCNF) (References number: 2003-1) that were in effect on Dec. 31, 2004, the salt is determined to have a toxicity of greater than about 10,000 mg/L for an algae (skeletonema costatum), a crustacean (acartia tonsa), a fish (scopthalmus) and a sediment reworker (corophium volutator). […]
(§2) In this Example 3, the toxicity results for the skeletonema costatum were determined according to ISO (International Organization for Standardization) 10253, the protocol for which is known to those of ordinary skill in the art, and is also the protocol required under the above-referenced HOCNF Guidelines. The toxicity results for the acartia tonsa were determined according to ISO 14669, the protocol for which is known to those of ordinary skill in the art. […]

[2] = tested on: acartia tonsa; assay: Toxicity to crustacean, ISO 14669; format: in vivo; conditions: amount required to kill or incapacitate half the test population per amount of water
Source text: as §1, §2

[3] = tested on: scopthalmus; assay: Toxicity to fish, OSPAR Protocols Part B; format: in vivo; conditions: amount required to kill or incapacitate half the test population per amount of water
Source text: as §1, §2

[4] = tested on: corophium volutator; assay: Toxicity to sediment reworker, OSPAR Protocols Part B; format: in vivo; conditions: amount required to kill or incapacitate half the test population per amount of water
Source text: as §1, §2

[5] = Environmentally / nationally acceptable toxicity assessment; conditions: concluded from result > about 10,000 mg/L for the species tested
Source text: According to still other embodiments described herein, a disulfonate salt of 2,4-pentanedione is provided. According to one such embodiment, the salt comprises 2,4-pentanedione-1,5-sodium disulfonate. According to another such embodiment, a disulfonate salt of 2,4-pentanedione has an environmentally acceptable toxicity. As used herein, the term “environmentally acceptable toxicity” means that, when tested according to procedures that are the same as or equivalent to those set forth by the OSPAR Guidelines for Completing the Harmonised Offshore Chemical Notification Format (HOCNF) (References number: 2003-1) that were in effect on Dec. 31, 2004, the salt is determined to have a toxicity of greater than about 10,000 mg/L for an algae (skeletonema costatum), a crustacean (acartia tonsa), a fish (scopthalmus) and a sediment reworker (corophium volutator).
According to yet another embodiment, a disulfonate salt of 2,4-pentanedione has a “nationally acceptable toxicity.” As used herein, the term “nationally acceptable toxicity” means that when tested according to procedures that are the same as or equivalent to those in effect in a country of interest on Dec. 31, 2004, the salt is determined to have a toxicity acceptable for use in the areas subject to such country's procedures. […]

[6] = Solubility of salt versus free acid on methanol rinse; format: physicochemical; conditions: compared to 2,4-pentanedione-1,5-disulfonic free acid
Source text: The neutralized product was then rinsed several times with methanol to remove by-product acids, or any salts formed therefrom, while leaving the 2,4-pentanedione-1,5-sodium disulfonate primarily undissolved. […] The rinsed product was dried in a vacuum oven and filtered through a 300 mesh screen to afford a flowing pale orange/red powder. The resulting powder was 2,4-pentanedione-1,5-sodium disulfonate.

Question: With `O=C(CC(=O)CS(=O)(=O)[O-])CS(=O)(=O)[O-].[Na+].[Na+]` [2,4-pentanedione-1,5-sodium disulfonate] as the molecule, how does the toxicity [1] read?
Answer: greater than 10,000 mg/L

Question: And the toxicity [2]?
Answer: greater than 10,000 mg/L

Question: And the toxicity [3]?
Answer: greater than 10,000 mg/L

Question: What about the toxicity [4] of the same molecule?
Answer: greater than 10,000 mg/L

Question: What about the toxicity acceptability [5] of the same molecule?
Answer: low toxicity

Question: And the “solubility compared to the free acid” value [6]?
Answer: significantly less soluble
